Results reported in patent US11167012B2, “Peptide inhibition of CCR3-mediated diseases or conditions” (The Board of Trustees of the University of Illinois, priority 2015, dated 2021).
Several values for one entry are separate records, joined by “and”; a condition that tells them apart may be missing. Equal entries are not always repeated. Entries after “also recorded” stand apart in the source; their conditions may differ. Where a SMILES comes first, the peptide text is derived from it. The star is where a group is joined. X1 = NC(=O)CCOCCOCCOCCOCCOCCOCCOCCOCCOCCOCCOCCOCCOCCOCCOCCOCCOCCOCCOCCOCCOCCOCCOCCOCCOCCOCCOCCOCCN*

Legend:
[1] = test system: Gαi; assay: Gαi activation, pull-down of GTP-bound Gαi in AML14.3D10-CCR3 cells; format: cell-based, human; conditions: 10 μM, 8 nM CCL11
Description: GTP-bound Gal was detected using a commercial Gαi assay kit (Abcam, Cambridge, Mass.) with modifications. Briefly, AML14.3D10-CCR3 cells were serum-starved for 16 hours before being pretreated with […] pertussis toxin for 2 hours, 10 μM R3-2-1 for 30 minutes, or with vehicle control. Pretreated cells were then stimulated with 8 nM CCL11 or medium for 1 minute. The reaction was stopped by adding ice cold PBS. Ten (10) million cells were used for each condition. Washed cells were lysed with 1× lysis buffer following manufacturer instructions. For pull-down of active Gαi, mouse anti-GTP bound Gαi antibody was conjugated to DYNABEADS Protein G (Life Technologies, Carlsbad, Calif.) for 15 minutes at room temperature. Conjugated beads were washed 3 times with Tris-buffered saline+TWEEN® polysorbate (TBST) and incubated with cell lysates for 20 minutes at room temperature. After washing with TBST, bound proteins were eluted by boiling the beads in 2×SDS buffer for 5 minutes. Eluates were resolved by SDS-PAGE and immunoblotted using a polyclonal rabbit anti-total Gαi antibody (Cell Signaling Technology).

[2] = test system: eosinophil recruitment into the lung airspaces; assay: Triple antigen (DRA) allergic mouse asthma model; format: in vivo
Description: Treatment of mice with CCR3 R3-2-1 peptide nanoparticles, scrambled R3-2-3 peptide nanoparticles or vehicle controls was administered i.v. by retro-orbital injection starting on day 11, one day before intranasal DRA allergen challenges on days 12-14 to assess its effect on inhibiting the recruitment of eosinophils into the lung airspaces and airways. Blood, bronchoalveolar lavage (BAL) fluid and lung tissue were harvested on day 15.
In the triple antigen driven allergic mouse model, mice are sensitized and airway-challenged with a combination of aeroallergens including Dust mite, Ragweed and Aspergillus sp. (DRA; Goplen, et al. (2009) J. Allergy Clin. Immunol. 123:925-932). This model recapitulates many of the pathologic features of human asthma, including eosinophil recruitment into the lung and airspaces, eosinophil degranulation, increased expression of Th2 cytokines, airway hyperreactivity (AHR), and airway remodeling (goblet cell metaplasia and mucus overproduction), and airway smooth muscle hyperplasia and subepithelial fibrosis. Using this model, the effectiveness of R3-2-1 in blocking allergen-induced eosinophil recruitment into the airways and development of airway pathologies in mice was evaluated. It was determined whether systemic (i.v.) administration of R3-2-1 nanoparticles has the capacity to inhibit eotaxin-mediated eosinophil recruitment into the airways. Mice subjected to the triple antigen (DRA) protocol were treated with R3-2-1, scrambled peptide (R3-2-3) and vehicle controls via i.v. administration following antigen sensitization, 24 hours prior to the first allergen challenge on Day 11 of the protocol (FIG. 7), and for i.v. routes, repeated before each subsequent allergen challenge.

[3] = test system: ERK1/2 phosphorylation; assay: Signal transduction assay, Western blotting of phospho-ERK1/2 in AML14.3D10-CCR3 cells; format: cell-based, human
Description: Phospho-ERK was detected using a specific antibody. The membrane was stripped and reprobed for total ERK1/2 as loading control. Immunoblots were quantified by densitometry using ImageJ. PD: PD184161, MEK inhibitor.
AML14.3D10-CCR3 cells were serum starved for 16 hours. Cells were pretreated with vehicle control, R3-2-1 or PD184161 for 30 minutes at 37° C., and subsequently stimulated with 8 nM CCL5 or CCL11 for 2 minutes. Stimulation was stopped by adding ice cold PBS. Cells were centrifuged and lysed in RIPA buffer containing protease and phosphatase inhibitors. Cell lysates were resolved on a 12% SDS-PAGE gel (10 μg/lane), transferred to PVDF membrane and blocked in 5% milk. Phospho-ERK1/2 was detected using rabbit monoclonal antibody (clone D13.14.4E, Cell Signaling Technology, Danvers, Mass.) and secondary goat anti-rabbit IgG-HRP (Santa Cruz Biotechnology, Dallas, Tex.). As a loading control, the membrane was subsequently stripped and re-probed with an antibody against total ERK1/2 (clone 127F5, Cell Signaling Technology).
Concurrent to ligand binding and activation, CCR3 undergoes ligand-induced desensitization and internalization (Zimmermann, et al. (1999) J. Biol. Chem. 274:12611-12618). As part of the desensitization process, CCR3 is degraded. This is thought to occur via β-arrestin recruitment to phosphorylated CCR3 and subsequent sequestration of the receptor into endosomal compartments, eventually leading to degradation. β-arrestin signaling is central in this process and is characterized by a late activation of signaling pathways such as MAPK/ERK1/2, in contrast to acute activation by G proteins. […] Therefore, the R3-2-1 peptide is a biased antagonist in that it inhibits the […] of CCL11 ligand-induced β-arrestin signaling, whereas the small molecule inhibitors are unbiased antagonists.

[4] = Dynamic light scattering of peptide solution; format: physicochemical; conditions: aqueous environment; 0.4 mg/ml in PBS
Description: As indicated herein, the CCR3 peptide analog self-assembles in aqueous medium into highly homogenous nanoparticles. Dynamic light scattering analyses indicate that the radius of the instant nanoparticles is in the range of 1 to 100 nm, more specifically about 8 nm (FIG. 1). Based upon the size and composition, the nanoparticles facilitate translocation of the peptide through the plasma membrane and protect the peptide from degradation in the blood/serum or other body fluids. Accordingly, this invention also provides a nanoparticle composition containing the CC3 peptide analog as well as methods of using the nanoparticle composition to antagonize CCR3 and in the treatment of inflammatory diseases such as asthma, and eosinophilic esophagitis.

IC50 for inhibition of total number of eosinophils recruited into the lung airspaces ([2]; i.v.): 8.16 mg/kg
hydrodynamic radius of self-assembled nanospheres [4]: approximately 8 nm
Structure (SMILES): CC[C@H](C)[C@H](NC(=O)[C@H](Cc1c[nH]c2ccccc12)NC(=O)[C@H](Cc1ccccc1)NC(=O)[C@@H]1CCCN1C(=O)[C@H](CC(C)C)NC(=O)[C@@H](NC(=O)[C@@H](NC(=O)[C@H](CC(C)C)NC(=O)[C@H](Cc1ccccc1)NC(=O)[C@H](CC(C)C)NC(=O)[C@@H](N)CC(C)C)C(C)C)[C@@H](C)O)C(=O)N[C@@H](Cc1c[nH]cn1)C(=O)N[C@@H](Cc1ccc(O)cc1)C(=O)N[C@H](C(=O)N[C@@H](CCCNC(=N)N)C(=O)NCC(=O)N[C@@H](Cc1c[nH]cn1)C(=O)N[C@@H](CC(N)=O)C(=O)N[C@@H](Cc1c[nH]c2ccccc12)C(=O)N[C@H](C(=O)N[C@@H](Cc1ccccc1)C(=O)NCC(=O)N[C@@H](Cc1c[nH]cn1)C(=O)N[C@@H](CC(=O)O)C(=O)N[C@@H](CC(=O)O)C(=O)N[C@@H](CC(=O)O)C(=O)NCCOCCOCCOCCOCCOCCOCCOCCOCCOCCOCCOCCOCCOCCOCCOCCOCCOCCOCCOCCOCCOCCOCCOCCOCCOCCOCCOCCOCCC(N)=O)C(C)C)C(C)C [Peptide R3-2-1] (H-LLFLVTLPFWIHYVRGHNWVFGHDDD-X1; N-terminus assumed)
activation of Gαi (GTP-bound form) [1]: inhibit the activation of Gαi
% Inhibition of eosinophil recruitment (BAL fluid) ([2]; 3 mg/kg i.v.): 19.54 ± 14.81%
% Inhibition of eosinophil recruitment (BAL fluid) ([2]; 6 mg/kg i.v.): 44.24 ± 9.33%
% Inhibition of eosinophil recruitment (BAL fluid) ([2]; 9 mg/kg i.v.): 53.03 ± 10.82%
% Inhibition of eosinophil recruitment (BAL fluid) ([2]; 12 mg/kg i.v., compared to vehicle and R3-2-3 controls): 69.3% and 69.33 ± 4.20%
total number of eosinophils recruited into the lung airspaces ([2]; i.v., BAL fluid): significantly inhibits
acute (2-5 minutes) and late (30 minutes) phase phosphorylation of ERK1/2 ([3]; 10 μM, CCL11-induced): inhibits only acute phosphorylation of ERK1/2
inhibition of ERK1/2 phosphorylation induced by RANTES and eotaxin ([3]; 2 and 10 μM, 8 nM CCL5 or CCL11 for 2 minutes): inhibits activation of the MAPK pathway; also recorded: attenuated
